PMC8667904, “Searching for drug leads targeted to the hydrophobic cleft of dengue virus capsid protein” (Journal of Enzyme Inhibition and Medicinal Chemistry, 2021)

What follows are compounds tested against T1, DENVC (dengue virus capsid protein) (Dengue virus 2 Thailand/NGS-C/1944, UniProt P14340) (assay: intrinsic tryptophan fluorescence titration, shift of emission maximum).
T1 construct: mature capsid protein C from the N-terminus of the dengue virus genome polyprotein; pET3a, E. coli BL21(DE3)pLysS, heparin column; symmetric homodimer; printed residues reach R100
T1 sequence (P14340 1-100): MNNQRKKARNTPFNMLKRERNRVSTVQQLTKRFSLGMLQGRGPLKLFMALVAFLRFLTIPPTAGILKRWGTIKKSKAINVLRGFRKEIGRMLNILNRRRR
Assay type: binding

Question: Which Kd does the source give for `N=C(N)NN=Cc1cc(Cl)ccc1O` [compound 1, 5-chloro-salicylaldehyde-guanylhydrazone] here?
Answer: The Kd was 18 ± 4 µM.

Question: Which Kd does the source give for `N=C(N)N/N=C/c1ccc(Br)s1` [compound 4, 5-bromo-thiophene-2-guanylhydrazone] here?
Answer: Its Kd is 20 ± 7 µM.

Question: Which Kd does the source give for `O/N=C/c1cc(Cl)ccc1O` [compound 12, 2-hydroxy-5-chloro-benzyloxime] here?
Answer: Its Kd is 23 ± 8 µM.
